Measured values taken from US20120190752A1, “EXO-S-MECAMYLAMINE METHOD, USE, AND COMPOUND FOR TREATMENT” (Targacept Inc., priority 2009, published 2012).

System: subjects with major depressive disorder (MDD) who were inadequate responders to citalopram
Experiment: CGI-I / CGI-GI (Clinical Global Impression-Improvement), Phase 2b add-on trial
Type: in vivo, human
Description: The Clinical Global Impression—Improvement scale (CGI-I) is a 7 point scale that requires the clinician to assess how much the patient's illness has improved or worsened relative to a baseline state at the beginning of the intervention. The Clinical Global Impression—Efficacy Index is a 4 point×4 point rating scale that assesses the therapeutic effect of the treatment. In more detail, a multi-center double-blind, randomized, placebo-controlled, parallel group, flexible dose titration study of TC-5214 as adjunctive therapy in subjects with major depressive disorder (MDD) who were inadequate responders to citalopram was conducted in centers in the US and India. The study consisted of a screening period, baseline/washout period, open-label phase, double-blind phase, and a follow-up visit. Subject participation in the study could continue for up to 16 weeks of treatment. Following a washout period of up to 28 days for other antidepressants, subjects with MDD and a MADRS total score >/=28 and a Clinical Global Impression-Severity (CGI-S) score >/=4 were enrolled on Day 1 into an open-label citalopram-only phase of the study. This phase lasted 8 weeks, with citalopram (CIT) dose increased from a once-daily dose of 20 mg (Day 1 through Week 4) to 40 mg (Week 4 through Week 8). A total of 579 subjects entered the open-label citalopram phase. At Week 8, subjects who tolerated 40 mg CIT, but whose MADRS score was reduced <50% from baseline and no lower than 17, and CGI-S≧4, were considered inadequate responders. These subjects (n=270) were randomized in a double-blind fashion to receive either placebo or TC-5214-23 as add-on therapy to continued CIT. The double-blind phase of the study also lasted 8 weeks (Week 8 to Week 16). Study drug, TC-5214-23 or placebo, was started at 2 mg daily (1 mg twice per day [BID] dosing), added on to continuing CIT (40 mg PO qd). After 2 weeks of treatment, the dose of TC-5214 could be increased to 4 mg (2 mg BID) or continued unchanged, with up-titration based upon good tolerability and inadequate therapeutic response. After a further 2 weeks, the dose of TC-5214 could be increased again to 8 mg (4 mg BID) if judged appropriate by the investigator, based upon good tolerability and inadequate therapeutic response. At any time during the double-blind phase of the study, placebo or TC-5214-23 could be reduced to the previous dose level following the emergence of unacceptable adverse events (AEs). […] At this follow-up, any signs or symptoms of relapse were evaluated. If a subject was prematurely discontinued from the study between Week 8 and Week 16 for any reason, the investigator was to make every effort to perform all evaluations as per protocol, assuming the subject had reached the end of the double-blind add-on treatment phase. These evaluations were to be made as soon as possible and within 2 weeks of discontinuation. […] There was no meaningful difference in results as a function of age, gender, site, or smoking status. With regard to efficacy endpoints, the following tables present efficacy used in the ITT (Intent-to-Treat) and PP (Per Protocol) populations unless otherwise specific. The primary inference was based upon Week 16 visit using the ITT population. Change from baseline was obtained by subtracting the baseline values from the individual on-treatment values. Change from Week 16 was obtained by subtracting the Week 16 values from the individual follow-up visit (Week 18/19) values. If either the baseline or Week 16 or on-treatment or follow-up value was missing, the change from baseline or Week 16 value was also set to missing. To account for missing data, the last observation carry forward (LOCF) method was used for the ITT and PP populations. Thus, the last available on-therapy observation for a subject, including the observation at premature discontinuation, was used to estimate subsequent missing data points. […]

[1] = ITT Population, Double Blind Week 16 LOCF
[2] = ITT Population, Double Blind Week 18 LOCF (Follow-up)
[3] = PP Population, Double Blind Week 16 LOCF
[4] = PP Population, Double Blind Week 18 LOCF (Follow-up)

CNC1(C)C2CCC(C2)C1(C)C (stereo in doubt) [TC-5214, (S)—N,2,3,3-tetramethylnorbornan-2-amine]
CGI-I Adjusted Mean [1]: 1.91
CGI-I Mean Difference between TC-5214 and Placebo [1]: 0.79
CGI-I Adjusted Mean [2]: 1.90
CGI-I Mean Difference between TC-5214 and Placebo [2]: 0.71
CGI-I score compared with placebo (ITT and PP populations, Week 16 and Week 18, result in words): statistically significant decreases (improvements)
CGI-GI Difference vs Placebo + CIT (ITT, Week 16 LOCF): −0.79
CGI-GI Adj. Mean (ITT, Week 16 LOCF, add-on to citalopram): 1.91
CGI-I Adjusted Mean [3]: 1.84
CGI-I Mean Difference between TC-5214 and Placebo [3]: 0.78
CGI-I Adjusted Mean [4]: 1.83
CGI-I Mean Difference between TC-5214 and Placebo [4]: 0.71
